Experimental findings from patent US20080280759A1, “6-(2-Fluoro-4-Alkoxyphenyl) Triazolopyrimidines, Their Preparation, Their Use For Controlling Harmful Fungi, and Compositions Comprising Them” (priority 2003, published 2008) are described below.

The assay concerns Botrytis cinerea. Description: Activity against gray mold on bell pepper leaves caused by Botrytis cinerea, protective application. The settings on record: 250 ppm, sprayed the day before inoculation, assessed visually after 5 days, untreated plants 80% infected. It is filed as in vivo. The method, then: The active compounds were formulated separately as a stock solution with 0.25% by weight in acetone or DMSO. 1% by weight of the emulsifier Wettol EM 31 (wetting agent having emulsifying and dispersing action based on ethoxylated alkylphenols) was added to this solution. The stock solutions of the active compounds were diluted with water to the stated concentration. For examples 1 and 2, the active compounds were prepared as a stock solution with 25 mg of active compound which was made up to 10 ml using a mixture of acetone and/or DMSO and the emulsifier Uniperol® EL (wetting agent having emulsifying and dispersing action based on the ethoxylated alkylphenols) in a volume ratio of solvent/emulsifier of 99 to 1. The mixture was then made up with water to 100 ml. This stock solution was diluted with the solvent/emulsifier/water mixture described to the concentration of active compounds stated below. Bell pepper seedlings of the cultivar “Neusiedler Ideal Elite” were, after 2 to 3 leaves were well developed, sprayed to runoff point with an aqueous suspension having the concentration of active compounds stated below. The next day, the treated plants were inoculated with a spore suspension of Botrytis cinerea which contained 1.7×10^6 spores/ml in a 2% aqueous biomalt solution. The test plants were then placed in a dark climatized chamber at 22 to 24° C. and high atmospheric humidity. After 5 days, the extent of the fungal infection on the leaves could be determined visually in %.

Consider “5-methoxy-6-(2,6-difluoro-4-methoxyphenyl)-7-(4-methyl-piperidinyl)-1,2,4-triazolo[1,5a]pyrimidine [Compound I-3]”, for which the “fungal infection on the leaves” value is “no infection”.

With `COc1cc(F)c(-c2c(C#N)nc3ncnn3c2N2CCC(C)CC2)c(F)c1` [Compound I-1, 5-cyano-6-(2,6-difluoro-4-methoxyphenyl)-7-(4-methyl-piperidinyl)-1,2,4-triazolo[1,5a]pyrimidine], the “fungal infection on the leaves” value is reported as “no infection”.

With `COc1cc(F)c(-c2c(C)nc3ncnn3c2N2CCC(C)CC2)c(F)c1` [Compound I-2, 5-methyl-6-(2,6-difluoro-4-methoxyphenyl)-7-(4-methyl-piperidinyl)-1,2,4-triazolo[1,5a]pyrimidine], the “fungal infection on the leaves” value is recorded as “no infection”.
